Assay results from ChEMBL document CHEMBL4507266, “Data for DCP probe BAY-784” (2021).

Tests used:
[1] = test system: Receptor-type tyrosine-protein kinase FLT3 (Homo sapiens), P36888 [D835Y]; conditions: Compound concentration 1000.0 nM
[2] = test system: Fibroblast growth factor receptor 3 (Homo sapiens), P22607 [G697C]; conditions: Compound concentration 1000.0 nM
[3] = test system: Receptor-type tyrosine-protein kinase FLT3 (Homo sapiens), P36888 [UNDEFINED MUTATION]; conditions: Compound concentration 1000.0 nM
[4] = target: cGMP-dependent protein kinase 1 (Homo sapiens) (UniProt Q13976); conditions: Compound concentration 1000.0 nM
[5] = target: Mitogen-activated protein kinase kinase kinase 6 (Homo sapiens) (UniProt O95382); conditions: Compound concentration 1000.0 nM
[6] = target: Serine/threonine-protein kinase 35 (Homo sapiens) (UniProt Q8TDR2); conditions: Compound concentration 1000.0 nM
[7] = target: Serine/threonine-protein kinase 32B (Homo sapiens) (UniProt Q9NY57); conditions: Compound concentration 1000.0 nM
[8] = target: Cyclin-dependent kinase 18 (Homo sapiens) (UniProt Q07002); conditions: Compound concentration 1000.0 nM
[9] = target: Calcium/calmodulin-dependent protein kinase type 1D (Homo sapiens) (UniProt Q8IU85); conditions: Compound concentration 1000.0 nM
[10] = target: Serine/threonine-protein kinase MARK1 (Homo sapiens) (UniProt Q9P0L2); conditions: Compound concentration 1000.0 nM
[11] = target: Proto-oncogene tyrosine-protein kinase Src (Homo sapiens) (UniProt P12931); conditions: Compound concentration 1000.0 nM
Proto-oncogene tyrosine-protein kinase Src (Homo sapiens), sequence (P12931 2-536 limits assumed): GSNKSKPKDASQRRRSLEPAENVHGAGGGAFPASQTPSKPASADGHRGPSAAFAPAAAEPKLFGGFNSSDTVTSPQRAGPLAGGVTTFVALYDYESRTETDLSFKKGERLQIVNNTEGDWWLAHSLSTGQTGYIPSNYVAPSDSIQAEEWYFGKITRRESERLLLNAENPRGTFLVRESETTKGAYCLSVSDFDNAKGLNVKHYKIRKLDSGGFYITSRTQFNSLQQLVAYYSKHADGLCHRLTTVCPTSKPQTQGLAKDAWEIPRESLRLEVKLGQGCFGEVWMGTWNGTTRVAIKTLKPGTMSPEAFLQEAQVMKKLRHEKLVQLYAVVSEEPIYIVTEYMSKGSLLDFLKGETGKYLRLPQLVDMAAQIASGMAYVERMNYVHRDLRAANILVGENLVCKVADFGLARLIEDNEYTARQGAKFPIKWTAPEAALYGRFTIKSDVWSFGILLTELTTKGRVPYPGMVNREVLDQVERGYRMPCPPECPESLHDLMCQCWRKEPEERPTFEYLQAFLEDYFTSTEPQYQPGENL

[12] = target: Cyclin-dependent kinase 7 (Homo sapiens) (UniProt P50613); conditions: Compound concentration 1000.0 nM
[13] = target: 5-hydroxytryptamine receptor 1E (Homo sapiens) (UniProt P28566); conditions: Compound concentration 10.0 uM
[14] = target: Sigma intracellular receptor 2 (Homo sapiens, UniProt Q5BJF2); assay: GPCRScan assay: inhibition of Sigma 2; design: radioligand conc. used [nm] 5.0, parental cells HEKT
Sigma intracellular receptor 2, sequence (Q5BJF2 whole entry): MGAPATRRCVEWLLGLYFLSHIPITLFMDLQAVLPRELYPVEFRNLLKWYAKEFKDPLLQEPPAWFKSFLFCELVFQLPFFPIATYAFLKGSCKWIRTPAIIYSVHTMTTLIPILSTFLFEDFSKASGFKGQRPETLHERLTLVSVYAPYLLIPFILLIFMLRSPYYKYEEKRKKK

[15] = target: Phosphatidylinositol 4-phosphate 5-kinase type-1 gamma (Homo sapiens) (UniProt O60331); conditions: Compound concentration 1000.0 nM
[16] = target: Dual specificity protein kinase CLK3 (Homo sapiens) (UniProt P49761); conditions: Compound concentration 1000.0 nM
[17] = target: Serine/threonine-protein kinase Sgk2 (Homo sapiens) (UniProt Q9HBY8); conditions: Compound concentration 1000.0 nM
[18] = target: Cyclin-dependent kinase 13 (Homo sapiens) (UniProt Q14004); conditions: Compound concentration 1000.0 nM
Cyclin-dependent kinase 13 (Homo sapiens), sequence (Q14004 whole entry, looked up): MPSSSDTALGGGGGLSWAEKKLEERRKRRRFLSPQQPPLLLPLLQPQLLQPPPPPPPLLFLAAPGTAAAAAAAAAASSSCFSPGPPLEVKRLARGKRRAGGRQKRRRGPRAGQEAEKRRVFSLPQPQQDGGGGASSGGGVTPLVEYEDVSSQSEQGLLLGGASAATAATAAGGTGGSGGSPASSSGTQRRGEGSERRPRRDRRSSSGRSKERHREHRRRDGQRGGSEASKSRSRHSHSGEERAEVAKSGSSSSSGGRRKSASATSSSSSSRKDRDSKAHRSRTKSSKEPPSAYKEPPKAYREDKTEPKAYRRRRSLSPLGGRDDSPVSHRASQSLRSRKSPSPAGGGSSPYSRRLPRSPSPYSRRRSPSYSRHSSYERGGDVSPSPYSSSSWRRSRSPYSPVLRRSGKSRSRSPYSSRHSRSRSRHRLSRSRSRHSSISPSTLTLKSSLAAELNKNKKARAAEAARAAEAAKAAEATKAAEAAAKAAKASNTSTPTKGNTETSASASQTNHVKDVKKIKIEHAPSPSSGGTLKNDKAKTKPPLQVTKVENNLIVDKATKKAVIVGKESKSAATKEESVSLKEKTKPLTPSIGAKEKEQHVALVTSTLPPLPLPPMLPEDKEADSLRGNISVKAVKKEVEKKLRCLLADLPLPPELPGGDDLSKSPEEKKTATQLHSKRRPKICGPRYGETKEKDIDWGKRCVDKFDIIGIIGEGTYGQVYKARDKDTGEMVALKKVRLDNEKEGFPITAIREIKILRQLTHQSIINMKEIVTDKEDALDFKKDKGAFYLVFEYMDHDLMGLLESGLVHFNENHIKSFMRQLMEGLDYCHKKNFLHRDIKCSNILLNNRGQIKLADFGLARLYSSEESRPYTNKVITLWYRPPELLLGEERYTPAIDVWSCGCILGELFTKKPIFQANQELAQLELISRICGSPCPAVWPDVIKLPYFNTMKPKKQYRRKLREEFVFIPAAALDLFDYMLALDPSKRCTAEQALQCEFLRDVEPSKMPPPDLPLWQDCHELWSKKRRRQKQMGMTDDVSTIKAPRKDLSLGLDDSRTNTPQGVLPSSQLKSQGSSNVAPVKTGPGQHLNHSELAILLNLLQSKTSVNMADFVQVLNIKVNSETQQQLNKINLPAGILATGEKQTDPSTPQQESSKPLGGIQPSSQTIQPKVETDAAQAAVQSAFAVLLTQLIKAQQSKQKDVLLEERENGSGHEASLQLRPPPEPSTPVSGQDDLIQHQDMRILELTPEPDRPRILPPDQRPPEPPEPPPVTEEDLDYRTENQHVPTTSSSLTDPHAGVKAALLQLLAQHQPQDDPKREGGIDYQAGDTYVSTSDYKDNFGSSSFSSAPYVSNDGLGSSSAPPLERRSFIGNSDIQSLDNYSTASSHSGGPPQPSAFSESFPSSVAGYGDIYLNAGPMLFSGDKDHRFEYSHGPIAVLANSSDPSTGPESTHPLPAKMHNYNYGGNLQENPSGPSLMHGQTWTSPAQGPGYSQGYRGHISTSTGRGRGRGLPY

[19] = target: SRSF protein kinase 2 (Homo sapiens) (UniProt P78362); conditions: Compound concentration 1000.0 nM
[20] = target: Cyclin-dependent kinase 9 (Homo sapiens) (UniProt P50750); conditions: Compound concentration 1000.0 nM
Cyclin-dependent kinase 9 (Homo sapiens), sequence (P50750 whole entry): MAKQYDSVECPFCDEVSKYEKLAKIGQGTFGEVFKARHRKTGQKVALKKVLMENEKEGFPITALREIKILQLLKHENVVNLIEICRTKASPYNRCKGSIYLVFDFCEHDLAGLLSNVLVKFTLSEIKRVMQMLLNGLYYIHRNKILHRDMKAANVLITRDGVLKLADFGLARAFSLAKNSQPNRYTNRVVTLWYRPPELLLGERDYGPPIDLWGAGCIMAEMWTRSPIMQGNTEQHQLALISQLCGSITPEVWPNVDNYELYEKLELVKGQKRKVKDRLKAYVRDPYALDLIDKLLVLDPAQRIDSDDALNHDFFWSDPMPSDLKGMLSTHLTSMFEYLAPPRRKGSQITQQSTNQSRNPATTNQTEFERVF

[21] = target: Peripheral plasma membrane protein CASK (Homo sapiens) (UniProt O14936); conditions: Compound concentration 1000.0 nM
[22] = target: T1, Alpha-2A adrenergic receptor (Homo sapiens) (UniProt P08913); conditions: Compound concentration 10.0 uM
T1 sequence (whole entry): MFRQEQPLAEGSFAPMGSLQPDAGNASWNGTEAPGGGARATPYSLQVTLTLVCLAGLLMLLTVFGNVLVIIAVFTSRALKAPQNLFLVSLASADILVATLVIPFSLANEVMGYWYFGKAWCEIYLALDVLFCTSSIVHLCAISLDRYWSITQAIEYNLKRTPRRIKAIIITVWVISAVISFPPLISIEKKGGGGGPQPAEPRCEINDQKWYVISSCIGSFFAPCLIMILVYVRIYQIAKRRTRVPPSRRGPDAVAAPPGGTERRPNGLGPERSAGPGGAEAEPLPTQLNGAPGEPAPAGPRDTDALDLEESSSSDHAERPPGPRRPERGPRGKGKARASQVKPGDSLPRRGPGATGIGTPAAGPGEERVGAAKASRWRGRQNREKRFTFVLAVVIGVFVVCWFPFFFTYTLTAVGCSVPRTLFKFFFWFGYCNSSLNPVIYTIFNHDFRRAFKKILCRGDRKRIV

[23] = target: Mitogen-activated protein kinase kinase kinase 12 (Homo sapiens) (UniProt Q12852); conditions: Compound concentration 1000.0 nM
[24] = target: Serine/threonine-protein kinase Nek10 (Homo sapiens) (UniProt Q6ZWH5); conditions: Compound concentration 1000.0 nM
Serine/threonine-protein kinase Nek10 (Homo sapiens), sequence (Q6ZWH5 whole entry): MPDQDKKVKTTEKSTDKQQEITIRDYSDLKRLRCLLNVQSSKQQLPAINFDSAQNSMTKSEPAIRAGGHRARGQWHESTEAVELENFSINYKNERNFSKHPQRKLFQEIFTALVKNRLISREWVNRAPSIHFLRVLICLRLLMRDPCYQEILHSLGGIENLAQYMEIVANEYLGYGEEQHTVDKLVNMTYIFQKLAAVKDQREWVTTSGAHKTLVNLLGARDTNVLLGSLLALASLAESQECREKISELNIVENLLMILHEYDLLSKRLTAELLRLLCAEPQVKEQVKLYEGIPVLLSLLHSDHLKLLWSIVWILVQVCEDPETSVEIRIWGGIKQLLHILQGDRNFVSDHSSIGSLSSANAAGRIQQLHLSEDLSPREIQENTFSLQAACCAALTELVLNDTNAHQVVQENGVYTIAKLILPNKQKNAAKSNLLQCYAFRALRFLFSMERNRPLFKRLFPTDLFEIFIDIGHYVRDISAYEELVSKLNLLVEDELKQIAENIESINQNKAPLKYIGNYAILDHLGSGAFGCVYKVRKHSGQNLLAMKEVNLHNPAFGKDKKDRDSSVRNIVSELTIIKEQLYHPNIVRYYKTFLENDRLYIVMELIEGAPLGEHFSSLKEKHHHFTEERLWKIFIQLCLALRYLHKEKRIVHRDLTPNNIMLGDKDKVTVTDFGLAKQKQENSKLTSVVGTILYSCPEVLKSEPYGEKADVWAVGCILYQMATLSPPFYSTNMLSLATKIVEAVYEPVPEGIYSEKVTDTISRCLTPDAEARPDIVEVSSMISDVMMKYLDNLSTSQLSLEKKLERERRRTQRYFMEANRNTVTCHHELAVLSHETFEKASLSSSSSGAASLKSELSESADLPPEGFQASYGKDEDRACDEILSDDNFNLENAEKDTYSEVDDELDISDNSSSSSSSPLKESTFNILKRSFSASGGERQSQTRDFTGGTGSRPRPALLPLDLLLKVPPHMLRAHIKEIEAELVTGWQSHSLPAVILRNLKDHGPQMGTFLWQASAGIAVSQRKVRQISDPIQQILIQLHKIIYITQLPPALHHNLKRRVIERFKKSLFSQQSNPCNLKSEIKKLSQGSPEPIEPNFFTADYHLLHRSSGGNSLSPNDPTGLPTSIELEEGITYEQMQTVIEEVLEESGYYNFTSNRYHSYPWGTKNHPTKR

[25] = target: Calcium/calmodulin-dependent protein kinase type II subunit beta (Homo sapiens) (UniProt Q13554); conditions: Compound concentration 1000.0 nM
Calcium/calmodulin-dependent protein kinase type II subunit beta (Homo sapiens), sequence (Q13554 whole entry): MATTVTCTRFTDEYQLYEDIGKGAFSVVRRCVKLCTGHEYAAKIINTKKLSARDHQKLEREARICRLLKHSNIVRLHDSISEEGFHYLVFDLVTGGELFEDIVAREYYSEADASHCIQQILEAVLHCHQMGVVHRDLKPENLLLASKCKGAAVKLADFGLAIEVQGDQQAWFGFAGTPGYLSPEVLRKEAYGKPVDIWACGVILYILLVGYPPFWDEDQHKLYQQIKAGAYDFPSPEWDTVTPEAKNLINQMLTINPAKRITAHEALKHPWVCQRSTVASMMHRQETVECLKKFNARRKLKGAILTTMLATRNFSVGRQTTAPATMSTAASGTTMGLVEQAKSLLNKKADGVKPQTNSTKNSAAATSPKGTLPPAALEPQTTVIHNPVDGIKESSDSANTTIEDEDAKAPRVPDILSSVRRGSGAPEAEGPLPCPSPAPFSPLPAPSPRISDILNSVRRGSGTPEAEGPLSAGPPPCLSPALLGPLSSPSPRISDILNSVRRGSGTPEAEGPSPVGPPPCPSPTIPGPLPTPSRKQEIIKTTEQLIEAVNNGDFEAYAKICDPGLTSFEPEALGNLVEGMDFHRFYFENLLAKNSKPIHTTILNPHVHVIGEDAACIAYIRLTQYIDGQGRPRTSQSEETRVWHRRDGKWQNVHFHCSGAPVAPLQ

[26] = target: Serine/threonine-protein kinase 25 (Homo sapiens) (UniProt O00506); conditions: Compound concentration 1000.0 nM
[27] = target: Glycogen synthase kinase-3 alpha (Homo sapiens) (UniProt P49840); conditions: Compound concentration 1000.0 nM
[28] = target: Inhibitor of nuclear factor kappa-B kinase subunit beta (Homo sapiens) (UniProt O14920); conditions: Compound concentration 1000.0 nM
[29] = test system: Mast/stem cell growth factor receptor Kit (Homo sapiens), P10721 [V559D]; conditions: Compound concentration 1000.0 nM
[30] = target: NT-3 growth factor receptor (Homo sapiens) (UniProt Q16288); conditions: Compound concentration 1000.0 nM
[31] = target: Phosphatidylinositol 5-phosphate 4-kinase type-2 beta (Homo sapiens) (UniProt P78356); conditions: Compound concentration 1000.0 nM
[32] = target: Mitogen-activated protein kinase kinase kinase 5 (Homo sapiens) (UniProt Q99683); conditions: Compound concentration 1000.0 nM
[33] = target: Cyclin-dependent kinase 16 (Homo sapiens) (UniProt Q00536); conditions: Compound concentration 1000.0 nM
Cyclin-dependent kinase 16 (Homo sapiens), sequence (Q00536 whole entry): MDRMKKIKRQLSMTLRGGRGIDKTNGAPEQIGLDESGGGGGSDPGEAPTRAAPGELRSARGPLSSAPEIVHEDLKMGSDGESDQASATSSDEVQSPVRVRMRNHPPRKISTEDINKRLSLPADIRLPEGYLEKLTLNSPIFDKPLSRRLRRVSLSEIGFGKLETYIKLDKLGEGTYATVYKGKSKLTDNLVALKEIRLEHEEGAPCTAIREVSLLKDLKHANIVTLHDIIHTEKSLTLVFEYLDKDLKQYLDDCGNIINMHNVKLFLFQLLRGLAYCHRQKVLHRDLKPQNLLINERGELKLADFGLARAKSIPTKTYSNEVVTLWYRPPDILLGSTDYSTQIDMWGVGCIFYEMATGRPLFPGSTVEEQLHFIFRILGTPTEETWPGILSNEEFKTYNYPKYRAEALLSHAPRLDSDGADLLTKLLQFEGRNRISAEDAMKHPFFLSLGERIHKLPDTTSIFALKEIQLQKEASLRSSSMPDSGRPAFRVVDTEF

[34] = target: Angiopoietin-1 receptor (Homo sapiens) (UniProt Q02763); conditions: Compound concentration 1000.0 nM
[35] = target: Interleukin-1 receptor-associated kinase 3 (Homo sapiens) (UniProt Q9Y616); conditions: Compound concentration 1000.0 nM
[36] = target: Serine/threonine-protein kinase D3 (Homo sapiens) (UniProt O94806); conditions: Compound concentration 1000.0 nM
[37] = target: Calcium/calmodulin-dependent protein kinase kinase 1 (Homo sapiens) (UniProt Q8N5S9); conditions: Compound concentration 1000.0 nM
[38] = target: Protein kinase C eta type (Homo sapiens) (UniProt P24723); conditions: Compound concentration 1000.0 nM
[39] = target: Mitogen-activated protein kinase 9 (Homo sapiens) (UniProt P45984); conditions: Compound concentration 1000.0 nM

Structure (SMILES) | residual activity [1] | residual activity [2] | residual activity [3] | residual activity [4] | residual activity [5] | residual activity [6] | residual activity [7] | residual activity [8] | residual activity [9] | residual activity [10] | residual activity [11] | residual activity [12] | inhibition [13] | Ki [14] | residual activity [15] | residual activity [16] | residual activity [17] | residual activity [18] | residual activity [19] | residual activity [20] | further results
O=C(NCc1ncc(C(F)(F)F)cc1Cl)c1ccc2c(c1)C1(CCS(=O)(=O)CC1)[C@@H](C1CC1)N2S(=O)(=O)c1ccc(F)cc1 [BAY-786] | 100% | 80% | 79% | 100% | 68% | 93% | 96% | 100% | 99% | 100% | 98% | 56% | -1.55% | 2 µM | 94% | 100% | 77% | 89% | 100% | 100% | residual activity [21]: 64%; inhibition [22]: 6.57%; residual activity [23]: 87%; residual activity [24]: 83%; residual activity [25]: 92%; residual activity [26]: 99%; residual activity [27]: 100%; residual activity [28]: 86%; residual activity [29]: 85%; residual activity [30]: 71%; residual activity [31]: 89%; residual activity [32]: 100%; residual activity [33]: 80%; residual activity [34]: 96%; residual activity [35]: 100%; residual activity [36]: 100%; residual activity [37]: 72%; residual activity [38]: 96%; residual activity [39]: 82%
O=C(NCc1ncc(C(F)(F)F)cc1Cl)c1ccc2c(c1)C1(CCS(=O)(=O)CC1)[C@H](C1CC1)N2S(=O)(=O)c1ccc(F)cc1 [BAY-784] | 100% | 100% | 100% | 100% | 83% | 100% | 100% | 100% | 85% | 100% | 98% | 64% | 10.4% | 1.11 µM | 100% | 86% | 83% | 88% | 91% | 100% | residual activity [21]: 75%; inhibition [22]: -5.62%; residual activity [23]: 82%; residual activity [24]: 94%; residual activity [25]: 98%; residual activity [26]: 100%; residual activity [27]: 100%; residual activity [28]: 92%; residual activity [29]: 100%; residual activity [30]: 84%; residual activity [31]: 89%; residual activity [32]: 100%; residual activity [33]: 100%; residual activity [34]: 100%; residual activity [35]: 99%; residual activity [36]: 100%; residual activity [37]: 100%; residual activity [38]: 100%; residual activity [39]: 76%
